IC50 data for 20 compounds are collected here from patent US20250361230A1, “LATS Inhibitors and Uses Thereof” (The USA, as Represented by the Secretary, Dept. of Heath …, priority 2022, published 2025).

Usually IC50 stands for the concentration at which inhibition is half-maximal.

Type in all cases: biochemical
One experiment deals with T1, LATS1 (Homo sapiens, UniProt O95835).
T1 sequence (O95835 1-1130): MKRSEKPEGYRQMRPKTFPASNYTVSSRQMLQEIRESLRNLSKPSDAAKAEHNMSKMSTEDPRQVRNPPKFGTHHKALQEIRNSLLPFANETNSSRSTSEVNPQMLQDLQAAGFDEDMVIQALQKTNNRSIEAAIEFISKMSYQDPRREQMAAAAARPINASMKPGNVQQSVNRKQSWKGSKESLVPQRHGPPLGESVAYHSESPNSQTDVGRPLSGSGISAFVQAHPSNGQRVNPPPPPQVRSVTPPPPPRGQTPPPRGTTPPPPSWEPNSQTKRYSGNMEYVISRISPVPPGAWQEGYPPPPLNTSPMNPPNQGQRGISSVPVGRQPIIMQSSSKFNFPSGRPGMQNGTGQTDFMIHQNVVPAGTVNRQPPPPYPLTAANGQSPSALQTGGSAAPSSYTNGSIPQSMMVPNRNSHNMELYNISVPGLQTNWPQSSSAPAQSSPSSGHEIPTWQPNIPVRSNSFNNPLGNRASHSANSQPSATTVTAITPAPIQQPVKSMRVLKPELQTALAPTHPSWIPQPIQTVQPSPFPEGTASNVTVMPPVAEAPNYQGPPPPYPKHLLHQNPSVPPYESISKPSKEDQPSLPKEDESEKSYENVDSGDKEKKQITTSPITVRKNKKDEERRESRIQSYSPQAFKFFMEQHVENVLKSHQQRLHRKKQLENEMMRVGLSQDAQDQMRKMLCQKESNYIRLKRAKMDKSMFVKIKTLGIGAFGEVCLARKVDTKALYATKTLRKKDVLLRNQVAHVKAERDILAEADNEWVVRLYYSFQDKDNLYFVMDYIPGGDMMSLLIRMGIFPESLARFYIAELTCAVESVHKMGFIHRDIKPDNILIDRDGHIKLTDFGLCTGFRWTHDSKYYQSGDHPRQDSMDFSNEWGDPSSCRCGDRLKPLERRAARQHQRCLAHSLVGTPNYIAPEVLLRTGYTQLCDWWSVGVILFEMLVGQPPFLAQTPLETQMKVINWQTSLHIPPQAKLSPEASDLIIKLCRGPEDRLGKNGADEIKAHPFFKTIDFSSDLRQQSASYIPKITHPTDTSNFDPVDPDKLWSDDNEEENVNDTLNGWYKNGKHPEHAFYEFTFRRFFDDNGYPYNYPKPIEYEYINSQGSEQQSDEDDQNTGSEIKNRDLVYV
As to the kind of experiment: RBC HotSpot kinase assay (33P-ATP, P81 filter-binding), LATS1. As to conditions: Table 28, biochemical kinase assay; read-out: LATS1 IC50. The procedure, abridged: (§1)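 Substrate in fresh buffer receives cofactors, then kinase, then compound in DMSO for a 20 min room-temperature preincubation. Reactions start with 33P-ATP and run 2 h; phosphorylation is read by P81 filter binding, and IC50 comes from a 10-point curve.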

The next experiment has as its target T2, LATS2 (Homo sapiens, UniProt Q9NRM7).
T2 sequence (Q9NRM7 1-1088): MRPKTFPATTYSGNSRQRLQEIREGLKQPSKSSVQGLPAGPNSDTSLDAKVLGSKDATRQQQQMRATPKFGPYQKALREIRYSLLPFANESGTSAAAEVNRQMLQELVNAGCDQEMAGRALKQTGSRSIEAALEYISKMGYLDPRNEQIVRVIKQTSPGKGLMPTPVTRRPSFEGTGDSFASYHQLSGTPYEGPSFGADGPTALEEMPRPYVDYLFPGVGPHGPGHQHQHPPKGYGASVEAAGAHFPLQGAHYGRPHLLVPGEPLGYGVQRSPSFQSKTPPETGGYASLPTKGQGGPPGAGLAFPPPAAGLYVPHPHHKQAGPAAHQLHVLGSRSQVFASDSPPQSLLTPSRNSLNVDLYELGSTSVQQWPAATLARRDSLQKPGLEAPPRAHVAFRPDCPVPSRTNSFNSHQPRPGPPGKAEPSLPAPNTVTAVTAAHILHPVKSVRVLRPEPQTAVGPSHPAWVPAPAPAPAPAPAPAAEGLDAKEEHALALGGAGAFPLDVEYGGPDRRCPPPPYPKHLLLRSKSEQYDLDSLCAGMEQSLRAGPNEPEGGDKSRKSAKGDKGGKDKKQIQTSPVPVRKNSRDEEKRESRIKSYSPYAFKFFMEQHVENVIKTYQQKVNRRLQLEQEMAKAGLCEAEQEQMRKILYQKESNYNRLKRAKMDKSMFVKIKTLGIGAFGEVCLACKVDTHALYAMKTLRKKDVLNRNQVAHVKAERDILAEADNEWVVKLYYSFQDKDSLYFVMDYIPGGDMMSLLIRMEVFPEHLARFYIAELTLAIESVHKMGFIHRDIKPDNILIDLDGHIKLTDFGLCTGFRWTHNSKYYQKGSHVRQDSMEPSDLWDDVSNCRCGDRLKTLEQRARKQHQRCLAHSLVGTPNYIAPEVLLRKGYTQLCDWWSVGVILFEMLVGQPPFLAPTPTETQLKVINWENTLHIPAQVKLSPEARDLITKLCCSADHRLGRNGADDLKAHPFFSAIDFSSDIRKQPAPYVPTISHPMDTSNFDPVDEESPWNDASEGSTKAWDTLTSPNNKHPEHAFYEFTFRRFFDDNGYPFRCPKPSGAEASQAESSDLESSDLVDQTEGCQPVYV
The experiment is described as follows: RBC HotSpot kinase assay (33P-ATP, P81 filter-binding), LATS2. As to conditions: Table 28, biochemical kinase assay; read-out: LATS2 IC50. Put shortly: as §1

For another experiment, the target named is AKT (Homo sapiens, UniProt P31749). The experiment is described as follows: RBC HotSpot kinase assay (33P-ATP, P81 filter-binding), AKT. The conditions noted are these: Table 28, biochemical kinase assay; read-out: AKT IC50. The procedure, abridged: as §1

Where only a bound is given, the exact number is not on record here.

AKT, sequence (P31749 whole entry): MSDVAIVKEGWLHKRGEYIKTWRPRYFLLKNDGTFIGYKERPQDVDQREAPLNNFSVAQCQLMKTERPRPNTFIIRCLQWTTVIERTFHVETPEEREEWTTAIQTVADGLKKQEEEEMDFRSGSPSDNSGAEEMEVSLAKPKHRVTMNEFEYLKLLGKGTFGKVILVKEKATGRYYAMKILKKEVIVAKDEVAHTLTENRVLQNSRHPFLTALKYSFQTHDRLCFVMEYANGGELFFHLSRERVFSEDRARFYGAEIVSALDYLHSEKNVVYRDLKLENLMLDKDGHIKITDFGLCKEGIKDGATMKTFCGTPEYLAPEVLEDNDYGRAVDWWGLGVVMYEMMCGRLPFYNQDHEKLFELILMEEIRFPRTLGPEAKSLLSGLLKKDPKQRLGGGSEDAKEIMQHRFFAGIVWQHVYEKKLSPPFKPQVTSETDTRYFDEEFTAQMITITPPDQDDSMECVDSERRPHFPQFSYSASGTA

`O=S(=O)(CCC1CC1)N1CCC(c2ccc(-c3ccnc4[nH]cc(F)c34)cc2Cl)CC1` [Compound 163, 4-(3-chloro-4-(1-((2-cyclopropylethyl)sulfonyl)piperidin-4-yl)phenyl)-3-fluoro-1H-pyrrolo[2,3-b]pyridine]: the IC50 at LATS1, at LATS2 and on AKT was > 10000 nM each time.

With `CCOCCS(=O)(=O)N1CCC(c2ccc(-c3ccnc4[nH]cc(F)c34)cc2Cl)CC1` [Compound 164, 4-(3-chloro-4-(1-((2-ethoxyethyl)sulfonyl)piperidin-4-yl)phenyl)-3-fluoro-1H-pyrrolo[2,3-b]pyridine], the IC50 at LATS1, at LATS2 and at AKT was > 10000 nM throughout.

`O=C([C@H]1CCCN1)N1CCC(c2ccc(-c3ccnc4[nH]cc(F)c34)cc2Cl)CC1` [Compound 165, (R)-4-(3-chloro-4-(1-prolylpiperidin-4-yl)phenyl)-3-fluoro-1H-pyrrolo[2,3-b]pyridine]: the IC50 was found to be 32.1 nM on LATS1, 36.9 nM on LATS2 and 1510 nM on AKT.

On to `O=C([C@@H]1CCCN1)N1CCC(c2ccc(-c3ccnc4[nH]cc(F)c34)cc2Cl)CC1` [Compound 166, (S)-4-(3-chloro-4-(1-prolylpiperidin-4-yl)phenyl)-3-fluoro-1H-pyrrolo[2,3-b]pyridine], for which the results for the 50% inhibitory concentration (IC50) at LATS1, at LATS2 and on AKT were 10.7 nM, 15.5 nM and 1300 nM, respectively.

Regarding `CN1CCC(c2ccc(-c3ccnc4[nH]cc(F)c34)cc2Cl)CC1` [Compound 167, 4-(3-chloro-4-(1-methylpiperidin-4-yl)phenyl)-3-fluoro-1H-pyrrolo[2,3-b]pyridine], the results for the IC50 at LATS1, at LATS2 and on AKT were 18 nM, 31 nM and 1520 nM, respectively.

Turning to `CC(C)(C)OC(=O)N1CCC(c2ccc(-c3ccnc4[nH]cc(F)c34)cc2Cl)CC1` [Compound 170, tert-butyl 4-(2-chloro-4-(3-fluoro-1H-pyrrolo[2,3-b]pyridin-4-yl)phenyl)piperidine-1-carboxylate], the IC50 at LATS1, on LATS2 and on AKT was > 10000 nM each time.

In the case of `CC(=O)N1CCC(c2ccc(-c3ccnc4[nH]cc(F)c34)cc2Cl)CC1` [Compound 171, 1-(4-(2-chloro-4-(3-fluoro-1H-pyrrolo[2,3-b]pyridin-4-yl)phenyl)piperidin-1-yl)ethan-1-one], the results for the concentration for half-maximal inhibition (IC50) on LATS1, on LATS2 and on AKT were 69 nM, 100 nM and 5400 nM, respectively.

In the case of `N#Cc1cc(C2CCNCC2)ccc1-c1ccnc2[nH]ccc12` [Compound 174, 5-(piperidin-4-yl)-2-(1H-pyrrolo[2,3-b]pyridin-4-yl)benzonitrile], the IC50 amounted to 4930 nM on LATS1, 2410 nM on LATS2 and 9000 nM at AKT.

For `c1cc(-c2ccc(C3CCNCC3)cn2)c2cc[nH]c2n1` [Compound 175, 4-(5-(piperidin-4-yl)pyridin-2-yl)-1H-pyrrolo[2,3-b]pyridine], the IC50 at LATS1 turned out to be 56 nM; on LATS2, 142 nM; at AKT it was 7000 nM.

For `Cc1cc(C2CCNCC2)ccc1-c1ccnc2[nH]ccc12` [Compound 176, 4-(2-methyl-4-(piperidin-4-yl)phenyl)-1H-pyrrolo[2,3-b]pyridine], the half-maximal inhibitory concentration (IC50) on LATS1 is 1100 nM; on LATS2, 2140 nM; at AKT it was > 10000 nM.

In the case of `c1cc(-c2ccc(C3CCNCC3)nc2)c2cc[nH]c2n1` [Compound 178, 4-(6-(piperidin-4-yl)pyridin-3-yl)-1H-pyrrolo[2,3-b]pyridine], the IC50 was 63 nM at LATS1, 71 nM on LATS2 and 640 nM at AKT.

Regarding `COc1cc(C2CCNCC2)ccc1-c1ccnc2[nH]ccc12` [Compound 179, 4-(2-methoxy-4-(piperidin-4-yl)phenyl)-1H-pyrrolo[2,3-b]pyridine], the concentration for half-maximal inhibition (IC50) on LATS1 was 1080 nM; at LATS2 it was 1290 nM; at AKT it was 5660 nM.

Turning to `COc1cc(-c2ccnc3[nH]ccc23)ccc1C1CCNCC1` [Compound 180, 4-(3-methoxy-4-(piperidin-4-yl)phenyl)-1H-pyrrolo[2,3-b]pyridine], the IC50 at LATS1 is 69 nM; at LATS2 it was 84 nM; on AKT it was 2570 nM.

As for `Fc1cc(C2CCNCC2)ccc1-c1ccnc2[nH]ccc12` [Compound 181, 4-(2-fluoro-4-(piperidin-4-yl)phenyl)-1H-pyrrolo[2,3-b]pyridine], the figures for the IC50 on LATS1, at LATS2 and at AKT were 68 nM, 87 nM and 3360 nM, respectively.

As for `FC(F)(F)c1cc(C2CCNCC2)ccc1-c1ccnc2[nH]ccc12` [Compound 182, 4-(4-(piperidin-4-yl)-2-(trifluoromethyl)phenyl)-1H-pyrrolo[2,3-b]pyridine], the IC50 on LATS1 was 1570 nM; at LATS2, 1770 nM; at AKT it was > 10000 nM.

In the case of `CC1CNCCC1c1ccc(-c2ccnc3[nH]ccc23)cc1` (stereo not drawn) [Compound 185, 4-(4-(3-methylpiperidin-4-yl)phenyl)-1H-pyrrolo[2,3-b]pyridine], the results for the IC50 at LATS1, at LATS2 and on AKT were 70 nM, 57 nM and 2110 nM, respectively.

`Fc1cnc2[nH]ccc2c1-c1ccc(C2CCNCC2)cc1` [Compound 186, 5-fluoro-4-(4-(piperidin-4-yl)phenyl)-1H-pyrrolo[2,3-b]pyridine]: the IC50 on LATS1 is 36 nM; at LATS2, 68 nM; on AKT, 2050 nM.

As for `c1cc(-c2ccc(C3CCNCC3)cc2)c2cc[nH]c2n1` [Compound 188, 4-(4-(piperidin-4-yl)phenyl)-1H-pyrrolo[2,3-b]pyridine], the IC50 at LATS1 is 70 nM; on LATS2, 75 nM; at AKT, 2200 nM.

Take `Fc1c[nH]c2nccc(-c3ccc(C4(C(F)(F)F)CCNCC4)cc3)c12` [Compound 189, 3-fluoro-4-(4-(4-(trifluoromethyl)piperidin-4-yl)phenyl)-1H-pyrrolo[2,3-b]pyridine]: the half-inhibitory concentration (IC50) at LATS1 turned out to be 11 nM; on LATS2, 14 nM; at AKT, 18 nM.

On to `Cc1nnc(C2(c3ccc(-c4ccnc5[nH]cc(F)c45)cc3)CCNCC2)o1` [Compound 190, 2-(4-(4-(3-fluoro-1H-pyrrolo[2,3-b]pyridin-4-yl)phenyl)piperidin-4-yl)-5-methyl-1,3,4-oxadiazole], for which the IC50 at LATS1 worked out at 20 nM; at LATS2, 17 nM; on AKT, 18 nM.
